Assay results taken from US20080058373A1, “Compositions and Methods for Treating or Preventing Glaucoma or Progression Thereof” (priority 2006, published 2008).

Legend:
[1] = system: New Zealand White rabbits; experiment: Intraocular pressure (IOP) in rabbits, topical dosing four times daily; type: in vivo; conditions: 0.1% (Group A)
Experimental: Seventy-five rabbits underwent two weeks of IOP training to condition them for IOP measurement. IOP was determined for both eyes of each animal using a Medtronic Solan, Model 30 classic pneumatonometer. Proparacaine hydrochloride 0.5% (1 drop) was delivered to each eye prior to IOP measurement. A two-point diurnal curve was established: IOP was recorded on Monday, Wednesday, and Friday of each week, at 8 a.m. and 12 p.m., with a ±1 hour range for each of these times. The time of the measurements was recorded.
On Days 1-31, animals received daily topical doses of the appropriate test article into the right eye. Animals were dosed four times per day, with doses administered 2 hours apart. Doses were administered using a calibrated 50-μL pipette. The eyelids were held close for 10 seconds immediately following dosing. The time of each dose administration was recorded.
Intraocular pressure (“IOP”) was determined for both eyes of each animal on Days 3, 5, 10, 12, 16, 18, 22, 24, 26, 30, and 32. IOP was evaluated with a Medtronic Solan, Model 30 classic pneumatonometer. Proparacaine hydrochloride 0.5% (1 drop) was delivered to each eye prior to IOP measurement. IOP was measured on Monday, Wednesday, and Friday of each week. A two-point diurnal curve was established: IOP was recorded at 8 a.m. and 12 p.m. on Day 3, and at 8 a.m. and 2 p.m. on later days, with a ±1 hour range for each of these times. The time of the measurements was recorded.
Descriptive statistics were prepared for IOP data of each treatment group (left and right eyes separately) at each measurement interval. The statistics included the number of observations (“N”), mean, standard deviation (“STD”), and standard error (“SEM”). Statistical analyses were conducted on IOP results using Statistical Analysis Systems (SAS Institute, Inc., Cary, N.C., V8.0). Parameters were evaluated using analysis of variance/GLM Procedure followed by Tukey's Standardized Range Test (Tukey, 1985) for post hoc comparisons of group means. The level of significance was set at a probability of p<0.05 for all statistical procedures. Group IOP means were compared at each interval, with left and right eyes compared separately.

Prostaglandin E2 (PGE2) = Prostaglandin E2 (PGE2) measurement in aqueous humor, rabbit paracentesis model; type: in vivo; conditions: 0.1% topical; second paracentesis; group mean
Experimental: Each rabbit was placed in a restraint device and tagged with the alphanumeric code. The formulations were instilled (50 μl) into the conjunctival sac of both eyes 180, 120, 90 and 30 min before the first paracentesis; then 15, 30, 90 min after the first paracentesis. To perform the first paracentesis the animals were anaesthetized by intravenous injection of 5 mg/kg Zoletil® (Virbac; 2.5 mg/kg tiletamine HCl and 2.5 mg/kg zolazepam HCl) and one drop of local anesthetic (Novesina®, Novartis) was administered to the eye. Anterior chamber paracentesis was performed with a 26 G needle attached to a tuberculin syringe; the needle was introduced into the anterior chamber through the cornea, taking care not to damage the tissues. Two hours after the first paracentesis, the animals were sacrificed with 0.4 ml Tanax® (Intervet International B.V.) and the second paracentesis was performed. About 100 μl of aqueous humor were removed at the second paracentesis. Aqueous humor was immediately split in four aliquots and stored at −80° C. until analysis. Then both eyes were enucleated and the iris-ciliary body was carefully excised, placed in polypropylene tubes, and stored at −80° C. until analysis.
For the quantitative determination of PGE2 in the aqueous humor we used the PGE2 Immunoassay kit (R&D Systems; Cat.No. KGE004; Lot.No. 240010). Eleven microliters or 16 μl of aqueous humor were diluted to 110 μl or 160 μl with the calibrator diluent solution provided with the kit. One hundred microliters of samples and of standards were load into a 96-well plate and recorded in a plate layout. Samples were treated following the assay procedure described in the kit. A microplate reader (GDV, Italy; model DV 990 B/V6) set at 450 nm (wavelength correction at 540 nm) was used for making the calibration and analyzing the samples.

C[C@@H]1C[C@H]2[C@@H]3CCC4=CC(=O)C=C[C@]4(C)[C@@]3(F)[C@@H](O)C[C@]2(C)[C@@]1(O)C(=O)CO [dexamethasone, reference compound]
Intraocular Pressure in Untreated Left Eyes (A.M. Readings), MEAN ([1]; Day 3): 24.3 mmHg | Intraocular Pressure in Untreated Left Eyes (A.M. Readings), MEAN ([1]; Day 5): 24.3 mmHg | Intraocular Pressure in Untreated Left Eyes (A.M. Readings), MEAN ([1]; Day 10): 26.9 mmHg | Intraocular Pressure in Untreated Left Eyes (A.M. Readings), MEAN ([1]; Day 12): 26.2 mmHg | Intraocular Pressure in Untreated Left Eyes (A.M. Readings), MEAN ([1]; Day 16): 25.0 mmHg | Intraocular Pressure in Untreated Left Eyes (A.M. Readings), MEAN ([1]; Day 18): 24.2 mmHg | Intraocular Pressure in Untreated Left Eyes (A.M. Readings), MEAN ([1]; Day 22): 25.0 mmHg | Intraocular Pressure in Untreated Left Eyes (A.M. Readings), MEAN ([1]; Day 24): 23.6 mmHg | Intraocular Pressure in Untreated Left Eyes (A.M. Readings), MEAN ([1]; Day 26): 23.7 mmHg | Intraocular Pressure in Untreated Left Eyes (A.M. Readings), MEAN ([1]; Day 30): 24.0 mmHg | Intraocular Pressure in Untreated Left Eyes (A.M. Readings), MEAN ([1]; Day 32): 25.5 mmHg | Intraocular Pressure in Untreated Left Eyes (A.M. Readings), MEAN ([1]; Pre-Study): 24.4 mmHg | Levels of PGE2 in aqueous humor, Mean (Prostaglandin E2 (PGE2)): 2.263 ng/mL
